Measured values taken from ChEMBL document CHEMBL5137065, “Recent Advances with KDM4 Inhibitors and Potential Applications” (J Med Chem, 2022).

Columns and labels:
[1] = biological target: T1, Lysine-specific demethylase 4B (Homo sapiens, UniProt O94953); assay: Inhibition of human KDM4B (1 to 347 residues) catalytic domain measured formaldehyde dehydrogenase (FDH)-coupled fluorescence assay
T1 sequence (O94953 whole entry): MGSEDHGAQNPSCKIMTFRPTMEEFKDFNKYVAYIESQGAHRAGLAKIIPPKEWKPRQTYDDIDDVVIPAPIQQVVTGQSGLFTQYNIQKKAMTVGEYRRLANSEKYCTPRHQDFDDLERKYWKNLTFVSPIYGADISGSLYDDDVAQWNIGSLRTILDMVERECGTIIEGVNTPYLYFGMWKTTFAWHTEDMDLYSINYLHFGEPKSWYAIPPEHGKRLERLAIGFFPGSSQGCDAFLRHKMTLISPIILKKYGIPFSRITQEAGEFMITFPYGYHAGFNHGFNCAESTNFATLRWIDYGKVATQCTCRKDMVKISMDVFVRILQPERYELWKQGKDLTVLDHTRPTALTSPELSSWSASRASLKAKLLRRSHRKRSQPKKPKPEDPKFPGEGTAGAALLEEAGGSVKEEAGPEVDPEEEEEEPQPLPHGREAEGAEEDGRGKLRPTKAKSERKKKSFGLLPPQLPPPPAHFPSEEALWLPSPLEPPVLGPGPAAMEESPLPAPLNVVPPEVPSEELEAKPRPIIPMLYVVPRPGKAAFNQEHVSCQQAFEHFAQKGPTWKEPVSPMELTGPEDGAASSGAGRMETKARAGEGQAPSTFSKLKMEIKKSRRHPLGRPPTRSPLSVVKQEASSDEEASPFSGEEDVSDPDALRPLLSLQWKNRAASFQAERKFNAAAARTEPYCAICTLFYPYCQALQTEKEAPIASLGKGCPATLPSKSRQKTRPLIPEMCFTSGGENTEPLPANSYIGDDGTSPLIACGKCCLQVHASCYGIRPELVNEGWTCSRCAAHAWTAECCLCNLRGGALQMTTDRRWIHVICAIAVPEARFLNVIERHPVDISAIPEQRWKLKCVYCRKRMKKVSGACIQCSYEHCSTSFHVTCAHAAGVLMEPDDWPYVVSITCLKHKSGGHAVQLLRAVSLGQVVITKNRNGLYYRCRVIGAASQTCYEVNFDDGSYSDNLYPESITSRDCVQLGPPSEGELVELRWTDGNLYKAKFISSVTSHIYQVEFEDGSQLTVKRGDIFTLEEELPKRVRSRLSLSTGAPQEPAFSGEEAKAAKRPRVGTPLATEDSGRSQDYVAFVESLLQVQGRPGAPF

[2] = biological target: T2, Lysine-specific demethylase 4D (Homo sapiens, UniProt Q6B0I6); assay: Inhibition of human KDM4D (1 to 378 residues) catalytic domain measured formaldehyde dehydrogenase (FDH)-coupled fluorescence assay
T2 sequence (Q6B0I6 whole entry): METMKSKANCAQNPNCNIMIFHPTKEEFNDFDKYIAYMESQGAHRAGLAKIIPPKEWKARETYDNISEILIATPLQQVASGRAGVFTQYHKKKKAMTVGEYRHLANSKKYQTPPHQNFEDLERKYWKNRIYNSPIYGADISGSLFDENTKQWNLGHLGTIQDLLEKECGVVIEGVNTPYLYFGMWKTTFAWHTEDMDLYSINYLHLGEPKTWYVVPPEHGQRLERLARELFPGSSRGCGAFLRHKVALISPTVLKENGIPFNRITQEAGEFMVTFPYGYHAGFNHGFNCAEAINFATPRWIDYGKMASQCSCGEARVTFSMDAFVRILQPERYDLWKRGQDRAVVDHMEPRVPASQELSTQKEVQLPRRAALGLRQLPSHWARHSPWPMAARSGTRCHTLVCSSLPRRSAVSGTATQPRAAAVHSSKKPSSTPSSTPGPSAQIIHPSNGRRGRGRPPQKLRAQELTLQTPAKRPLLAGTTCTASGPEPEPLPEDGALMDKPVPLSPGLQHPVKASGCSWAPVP

COC(=O)Cc1cc(O)n(-c2nc3ccccc3[nH]2)n1
IC50 [1]: 4 µM | IC50 [2]: 4 µM
